Reference: article PMC11864979, “First-in-class ultralong-target-residence-time p38α inhibitors as a mitosis-targeted therapy for colorectal cancer” (Nature Cancer, 2025)
Where two headings read alike, the source gives them in different places.

Columns and labels:
Experiment in all cases: selectivity profiling in a panel of 340 wild-type kinases (Reaction Biology Europe)
Assay type in all cases: binding
340 wild-type kinases [1] = molecular target: T1, 340 wild-type kinases (Homo sapiens, UniProt Q9Y2H1)
T1 construct: purchased Reaction Biology Europe

340 wild-type kinases [2] = molecular target: T2, 340 wild-type kinases (Homo sapiens, UniProt P08069)
T2 construct: purchased Reaction Biology Europe
T2 sequence (P08069 31-1367): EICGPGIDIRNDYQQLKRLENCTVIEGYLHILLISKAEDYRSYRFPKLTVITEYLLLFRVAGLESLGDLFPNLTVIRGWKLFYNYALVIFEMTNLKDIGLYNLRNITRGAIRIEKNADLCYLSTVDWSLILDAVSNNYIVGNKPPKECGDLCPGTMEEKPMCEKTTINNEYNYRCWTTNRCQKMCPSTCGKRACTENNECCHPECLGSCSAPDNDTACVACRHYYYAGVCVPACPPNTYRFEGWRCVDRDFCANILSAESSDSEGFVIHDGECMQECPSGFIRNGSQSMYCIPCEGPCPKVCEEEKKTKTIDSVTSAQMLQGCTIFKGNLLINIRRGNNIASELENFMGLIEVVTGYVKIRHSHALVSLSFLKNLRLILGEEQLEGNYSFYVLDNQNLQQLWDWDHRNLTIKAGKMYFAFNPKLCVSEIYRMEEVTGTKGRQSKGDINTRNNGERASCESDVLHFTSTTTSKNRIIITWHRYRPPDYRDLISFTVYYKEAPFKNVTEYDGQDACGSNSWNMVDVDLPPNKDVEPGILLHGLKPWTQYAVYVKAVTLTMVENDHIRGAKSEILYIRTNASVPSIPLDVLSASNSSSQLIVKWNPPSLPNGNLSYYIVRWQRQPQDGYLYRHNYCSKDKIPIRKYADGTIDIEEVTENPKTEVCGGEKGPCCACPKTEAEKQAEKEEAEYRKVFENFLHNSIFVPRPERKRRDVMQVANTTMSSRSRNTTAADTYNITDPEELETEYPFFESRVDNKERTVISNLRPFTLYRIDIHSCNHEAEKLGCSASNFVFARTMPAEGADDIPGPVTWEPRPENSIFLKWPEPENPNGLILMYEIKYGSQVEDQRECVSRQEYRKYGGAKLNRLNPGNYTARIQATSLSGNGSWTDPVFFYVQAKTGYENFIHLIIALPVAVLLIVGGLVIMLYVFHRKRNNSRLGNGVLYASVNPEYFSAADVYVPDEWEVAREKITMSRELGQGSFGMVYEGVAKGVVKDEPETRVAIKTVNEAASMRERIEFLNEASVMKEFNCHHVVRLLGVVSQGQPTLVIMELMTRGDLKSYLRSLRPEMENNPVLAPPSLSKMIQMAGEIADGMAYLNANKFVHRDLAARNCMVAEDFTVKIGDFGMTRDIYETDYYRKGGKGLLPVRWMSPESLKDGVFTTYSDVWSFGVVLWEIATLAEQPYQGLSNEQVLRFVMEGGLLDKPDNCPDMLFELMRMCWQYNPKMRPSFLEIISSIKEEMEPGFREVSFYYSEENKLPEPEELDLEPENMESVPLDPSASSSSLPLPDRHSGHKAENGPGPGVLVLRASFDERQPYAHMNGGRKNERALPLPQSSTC

340 wild-type kinases [3] = molecular target: T3, 340 wild-type kinases (Homo sapiens, UniProt Q9HBY8)
T3 construct: purchased Reaction Biology Europe
T3 sequence (Q9HBY8 1-367): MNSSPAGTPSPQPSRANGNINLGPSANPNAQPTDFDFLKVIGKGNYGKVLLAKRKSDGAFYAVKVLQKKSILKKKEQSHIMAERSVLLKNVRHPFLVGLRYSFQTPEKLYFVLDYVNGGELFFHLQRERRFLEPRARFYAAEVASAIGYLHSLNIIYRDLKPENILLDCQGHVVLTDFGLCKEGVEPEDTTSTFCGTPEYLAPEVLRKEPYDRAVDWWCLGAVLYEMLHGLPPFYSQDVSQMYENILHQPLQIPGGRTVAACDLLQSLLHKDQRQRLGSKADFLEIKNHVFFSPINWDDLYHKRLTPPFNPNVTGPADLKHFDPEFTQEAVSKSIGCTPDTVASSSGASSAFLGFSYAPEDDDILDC

340 wild-type kinases [4] = molecular target: T4, 340 wild-type kinases (Homo sapiens, UniProt Q9UQM7)
T4 construct: purchased Reaction Biology Europe
T4 sequence (Q9UQM7 whole entry): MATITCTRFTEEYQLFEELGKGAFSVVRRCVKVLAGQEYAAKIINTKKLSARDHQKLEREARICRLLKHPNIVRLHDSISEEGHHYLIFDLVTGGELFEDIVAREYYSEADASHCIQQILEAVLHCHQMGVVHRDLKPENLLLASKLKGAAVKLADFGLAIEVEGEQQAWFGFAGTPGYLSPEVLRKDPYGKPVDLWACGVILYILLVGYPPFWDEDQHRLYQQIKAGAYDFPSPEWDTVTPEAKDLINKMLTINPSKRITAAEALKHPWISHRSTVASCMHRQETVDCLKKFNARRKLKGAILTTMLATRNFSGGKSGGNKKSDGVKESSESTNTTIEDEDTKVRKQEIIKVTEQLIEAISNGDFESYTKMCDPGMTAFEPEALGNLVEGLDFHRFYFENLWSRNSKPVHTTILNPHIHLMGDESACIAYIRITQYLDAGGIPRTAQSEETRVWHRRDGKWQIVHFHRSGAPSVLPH

340 wild-type kinases [5] = molecular target: T5, 340 wild-type kinases (Homo sapiens, UniProt Q9HCP0)
T5 construct: purchased Reaction Biology Europe

340 wild-type kinases [6] = molecular target: T6, 340 wild-type kinases (Homo sapiens, UniProt O14733)
T6 construct: purchased Reaction Biology Europe
T6 sequence (O14733 1-419): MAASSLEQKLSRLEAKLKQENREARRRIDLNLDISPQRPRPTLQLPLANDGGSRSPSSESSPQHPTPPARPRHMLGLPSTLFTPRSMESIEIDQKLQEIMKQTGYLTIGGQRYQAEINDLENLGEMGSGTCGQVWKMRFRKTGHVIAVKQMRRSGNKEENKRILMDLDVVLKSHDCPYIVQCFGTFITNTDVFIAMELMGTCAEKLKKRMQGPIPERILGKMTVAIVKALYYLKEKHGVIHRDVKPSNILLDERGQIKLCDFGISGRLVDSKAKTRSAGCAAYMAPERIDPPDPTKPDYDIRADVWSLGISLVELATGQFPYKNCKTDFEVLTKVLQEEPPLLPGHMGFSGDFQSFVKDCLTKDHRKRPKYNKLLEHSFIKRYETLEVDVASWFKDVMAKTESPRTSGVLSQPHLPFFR

340 wild-type kinases [7] = molecular target: T7, 340 wild-type kinases (Homo sapiens, UniProt P43250)
T7 construct: purchased Reaction Biology Europe

340 wild-type kinases [8] = molecular target: T8, 340 wild-type kinases (Homo sapiens, UniProt P53350)
T8 construct: purchased Reaction Biology Europe

340 wild-type kinases [9] = molecular target: T9, 340 wild-type kinases (Homo sapiens, UniProt Q9BQI3)
T9 construct: purchased Reaction Biology Europe

340 wild-type kinases [10] = molecular target: T10, 340 wild-type kinases (Homo sapiens, UniProt P00533)
T10 construct: purchased Reaction Biology Europe
T10 sequence (P00533 25-1210): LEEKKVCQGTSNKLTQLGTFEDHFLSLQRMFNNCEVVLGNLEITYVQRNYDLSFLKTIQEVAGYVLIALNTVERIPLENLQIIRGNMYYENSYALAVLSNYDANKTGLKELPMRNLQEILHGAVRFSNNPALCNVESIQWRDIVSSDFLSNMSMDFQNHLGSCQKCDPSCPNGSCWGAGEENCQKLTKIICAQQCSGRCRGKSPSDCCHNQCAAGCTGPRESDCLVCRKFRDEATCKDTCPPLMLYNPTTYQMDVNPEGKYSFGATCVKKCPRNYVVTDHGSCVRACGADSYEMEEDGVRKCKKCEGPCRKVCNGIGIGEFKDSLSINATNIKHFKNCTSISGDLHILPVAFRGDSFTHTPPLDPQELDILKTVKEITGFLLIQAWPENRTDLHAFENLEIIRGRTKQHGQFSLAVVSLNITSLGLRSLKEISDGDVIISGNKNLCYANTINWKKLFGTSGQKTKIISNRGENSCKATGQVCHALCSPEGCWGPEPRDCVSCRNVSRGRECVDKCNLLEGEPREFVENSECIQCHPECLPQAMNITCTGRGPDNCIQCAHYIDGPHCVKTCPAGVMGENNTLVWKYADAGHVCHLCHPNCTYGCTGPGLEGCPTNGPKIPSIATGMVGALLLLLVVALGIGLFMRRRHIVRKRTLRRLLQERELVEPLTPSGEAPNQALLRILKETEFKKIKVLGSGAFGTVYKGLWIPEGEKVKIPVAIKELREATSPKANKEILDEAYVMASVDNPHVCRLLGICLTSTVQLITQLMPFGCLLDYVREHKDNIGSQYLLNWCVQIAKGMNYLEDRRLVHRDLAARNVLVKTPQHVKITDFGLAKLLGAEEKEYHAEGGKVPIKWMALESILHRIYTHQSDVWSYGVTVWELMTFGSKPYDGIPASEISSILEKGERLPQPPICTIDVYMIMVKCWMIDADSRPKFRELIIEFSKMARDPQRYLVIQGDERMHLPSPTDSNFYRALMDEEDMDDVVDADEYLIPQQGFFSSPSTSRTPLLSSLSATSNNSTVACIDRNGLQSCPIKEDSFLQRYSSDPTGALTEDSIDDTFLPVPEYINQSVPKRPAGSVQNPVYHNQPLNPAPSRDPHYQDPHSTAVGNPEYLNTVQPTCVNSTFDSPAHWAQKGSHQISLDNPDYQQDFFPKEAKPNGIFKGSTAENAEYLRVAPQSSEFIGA

340 wild-type kinases [11] = molecular target: T11, 340 wild-type kinases (Homo sapiens, UniProt P80192)
T11 construct: purchased Reaction Biology Europe
T11 sequence (P80192 whole entry): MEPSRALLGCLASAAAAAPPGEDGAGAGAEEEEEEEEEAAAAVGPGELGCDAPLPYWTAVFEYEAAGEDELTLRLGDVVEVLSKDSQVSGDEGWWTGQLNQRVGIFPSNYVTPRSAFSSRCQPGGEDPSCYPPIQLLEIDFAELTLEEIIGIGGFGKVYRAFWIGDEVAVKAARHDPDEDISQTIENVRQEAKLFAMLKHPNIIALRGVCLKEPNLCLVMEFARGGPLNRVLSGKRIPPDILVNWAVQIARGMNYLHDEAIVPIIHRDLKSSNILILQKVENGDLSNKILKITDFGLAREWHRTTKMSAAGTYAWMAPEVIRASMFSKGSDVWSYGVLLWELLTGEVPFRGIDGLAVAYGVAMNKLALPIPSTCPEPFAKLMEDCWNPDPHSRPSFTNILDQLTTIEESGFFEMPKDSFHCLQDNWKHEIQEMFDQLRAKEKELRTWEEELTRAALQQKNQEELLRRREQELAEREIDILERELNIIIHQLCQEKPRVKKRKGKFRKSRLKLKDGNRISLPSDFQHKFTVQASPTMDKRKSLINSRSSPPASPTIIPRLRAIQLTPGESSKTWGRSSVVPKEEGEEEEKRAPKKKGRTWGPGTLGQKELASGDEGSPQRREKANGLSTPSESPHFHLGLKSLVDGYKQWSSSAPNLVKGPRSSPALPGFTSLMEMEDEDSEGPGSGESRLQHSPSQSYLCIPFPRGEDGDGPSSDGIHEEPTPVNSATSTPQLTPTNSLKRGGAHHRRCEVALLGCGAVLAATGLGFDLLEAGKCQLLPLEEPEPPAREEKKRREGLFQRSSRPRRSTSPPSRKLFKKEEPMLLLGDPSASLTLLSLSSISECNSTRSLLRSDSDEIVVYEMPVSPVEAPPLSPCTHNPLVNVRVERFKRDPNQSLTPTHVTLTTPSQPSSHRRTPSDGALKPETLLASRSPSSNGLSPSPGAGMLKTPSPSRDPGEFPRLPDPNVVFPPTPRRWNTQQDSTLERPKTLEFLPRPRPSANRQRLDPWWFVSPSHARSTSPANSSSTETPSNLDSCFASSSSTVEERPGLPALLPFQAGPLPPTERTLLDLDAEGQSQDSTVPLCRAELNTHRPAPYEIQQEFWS

340 wild-type kinases [12] = molecular target: T12, 340 wild-type kinases (Homo sapiens, UniProt Q04759)
T12 construct: purchased Reaction Biology Europe

340 wild-type kinases [13] = molecular target: T13, 340 wild-type kinases (Homo sapiens, UniProt Q15349)
T13 construct: purchased Reaction Biology Europe
T13 sequence (Q15349 whole entry): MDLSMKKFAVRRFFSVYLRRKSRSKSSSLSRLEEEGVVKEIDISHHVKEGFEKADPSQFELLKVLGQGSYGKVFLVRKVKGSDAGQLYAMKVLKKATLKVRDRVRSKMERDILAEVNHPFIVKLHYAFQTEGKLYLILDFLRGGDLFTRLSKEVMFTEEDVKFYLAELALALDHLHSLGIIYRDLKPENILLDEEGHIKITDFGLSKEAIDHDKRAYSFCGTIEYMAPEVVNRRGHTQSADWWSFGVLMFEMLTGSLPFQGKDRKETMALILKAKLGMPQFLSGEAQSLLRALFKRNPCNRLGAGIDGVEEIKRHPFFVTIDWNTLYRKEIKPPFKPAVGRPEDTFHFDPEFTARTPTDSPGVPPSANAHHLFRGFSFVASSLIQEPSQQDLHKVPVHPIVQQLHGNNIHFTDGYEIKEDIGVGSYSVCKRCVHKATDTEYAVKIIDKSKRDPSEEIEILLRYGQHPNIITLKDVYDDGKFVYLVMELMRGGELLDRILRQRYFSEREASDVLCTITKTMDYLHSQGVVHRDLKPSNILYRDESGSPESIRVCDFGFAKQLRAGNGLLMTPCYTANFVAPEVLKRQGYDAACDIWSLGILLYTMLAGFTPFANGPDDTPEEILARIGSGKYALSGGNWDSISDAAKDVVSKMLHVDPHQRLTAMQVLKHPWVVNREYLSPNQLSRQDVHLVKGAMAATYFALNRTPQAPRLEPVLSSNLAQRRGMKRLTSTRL

CNC(=O)c1ccc2c(c1)C(=O)c1ccc(Nc3ccc(F)c(NC(=O)C4CC4)c3)cc1CC2 [Compound 2015]
remaining activity at 0.2 µM (340 wild-type kinases [1]; 0.2 µM 2015, read-out: NDR2 residual activity): 97.8% | remaining activity at 1 µM (340 wild-type kinases [1]; 1 µM 2015, read-out: NDR2 residual activity): 96.6% | remaining activity at 0.2 µM (340 wild-type kinases [1]; NDR2, 0.2 µM, read-out: residual activity): 97.8% | remaining activity at 1 µM (340 wild-type kinases [1]; NDR2, 1 µM, read-out: residual activity): 96.7% | remaining activity at 0.2 µM (340 wild-type kinases [2]; 0.2 µM 2015, read-out: IGF1R residual activity): 109% | remaining activity at 1 µM (340 wild-type kinases [2]; 1 µM 2015, read-out: IGF1R residual activity): 97.4% | remaining activity at 0.2 µM (340 wild-type kinases [2]; IGF1R, 0.2 µM, read-out: residual activity): 109% | remaining activity at 1 µM (340 wild-type kinases [2]; IGF1R, 1 µM, read-out: residual activity): 97.4% | remaining activity at 0.2 µM (340 wild-type kinases [3]; 0.2 µM 2015, read-out: SGK2 residual activity): 109% | remaining activity at 1 µM (340 wild-type kinases [3]; 1 µM 2015, read-out: SGK2 residual activity): 104% | remaining activity at 0.2 µM (340 wild-type kinases [3]; SGK2, 0.2 µM, read-out: residual activity): 109% | remaining activity at 1 µM (340 wild-type kinases [3]; SGK2, 1 µM, read-out: residual activity): 104% | remaining activity at 0.2 µM (340 wild-type kinases [4]; 0.2 µM 2015, read-out: CAMK2A residual activity): 102% | remaining activity at 1 µM (340 wild-type kinases [4]; 1 µM 2015, read-out: CAMK2A residual activity): 96.4% | remaining activity at 1 µM (340 wild-type kinases [4]; CAMK2A, 1 µM, read-out: residual activity): 96.4% | remaining activity at 0.2 µM (340 wild-type kinases [5]; 0.2 µM 2015, read-out: CK1gamma1 residual activity): 115% | remaining activity at 1 µM (340 wild-type kinases [5]; 1 µM 2015, read-out: CK1gamma1 residual activity): 107% | remaining activity at 0.2 µM (340 wild-type kinases [5]; CK1gamma1, 0.2 µM, read-out: residual activity): 115% | remaining activity at 1 µM (340 wild-type kinases [5]; CK1gamma1, 1 µM, read-out: residual activity): 107% | remaining activity at 0.2 µM (340 wild-type kinases [6]; 0.2 µM 2015, read-out: MKK7 residual activity): 102% | remaining activity at 1 µM (340 wild-type kinases [6]; 1 µM 2015, read-out: MKK7 residual activity): 117% | remaining activity at 0.2 µM (340 wild-type kinases [6]; MKK7, 0.2 µM, read-out: residual activity): 102% | remaining activity at 1 µM (340 wild-type kinases [6]; MKK7, 1 µM, read-out: residual activity): 117% | remaining activity at 0.2 µM (340 wild-type kinases [7]; 0.2 µM 2015, read-out: GRK6 residual activity): 111% | remaining activity at 1 µM (340 wild-type kinases [7]; 1 µM 2015, read-out: GRK6 residual activity): 110% | remaining activity at 0.2 µM (340 wild-type kinases [7]; GRK6, 0.2 µM, read-out: residual activity): 111% | remaining activity at 1 µM (340 wild-type kinases [7]; GRK6, 1 µM, read-out: residual activity): 110% | remaining activity at 0.2 µM (340 wild-type kinases [8]; 0.2 µM 2015, read-out: PLK1 residual activity): 94.2% | remaining activity at 1 µM (340 wild-type kinases [8]; 1 µM 2015, read-out: PLK1 residual activity): 96.3% | remaining activity at 0.2 µM (340 wild-type kinases [8]; PLK1, 0.2 µM, read-out: residual activity): 94.2% | remaining activity at 1 µM (340 wild-type kinases [8]; PLK1, 1 µM, read-out: residual activity): 96.3% | remaining activity at 0.2 µM (340 wild-type kinases [9]; 0.2 µM 2015, read-out: HRI residual activity): 75% | remaining activity at 1 µM (340 wild-type kinases [9]; 1 µM 2015, read-out: HRI residual activity): 93.7% | remaining activity at 0.2 µM (340 wild-type kinases [9]; HRI, 0.2 µM, read-out: residual activity): 75% | remaining activity at 1 µM (340 wild-type kinases [9]; HRI, 1 µM, read-out: residual activity): 93.7% | remaining activity at 0.2 µM (340 wild-type kinases [10]; 0.2 µM 2015, read-out: EGFR residual activity): 108% | remaining activity at 1 µM (340 wild-type kinases [10]; 1 µM 2015, read-out: EGFR residual activity): 96.6% | remaining activity at 0.2 µM (340 wild-type kinases [10]; EGFR, 0.2 µM, read-out: residual activity): 108% | remaining activity at 1 µM (340 wild-type kinases [10]; EGFR, 1 µM, read-out: residual activity): 96.6% | remaining activity at 0.2 µM (340 wild-type kinases [11]; 0.2 µM 2015, read-out: MAP3K9 residual activity): 114% | remaining activity at 1 µM (340 wild-type kinases [11]; 1 µM 2015, read-out: MAP3K9 residual activity): 96.4% | remaining activity at 0.2 µM (340 wild-type kinases [11]; MAP3K9, 0.2 µM, read-out: residual activity): 114% | remaining activity at 1 µM (340 wild-type kinases [11]; MAP3K9, 1 µM, read-out: residual activity): 96.4% | remaining activity at 0.2 µM (340 wild-type kinases [12]; 0.2 µM 2015, read-out: PKCtheta residual activity): 108% | remaining activity at 1 µM (340 wild-type kinases [12]; 1 µM 2015, read-out: PKCtheta residual activity): 89.1% | remaining activity at 0.2 µM (340 wild-type kinases [12]; PKCtheta, 0.2 µM, read-out: residual activity): 108% | remaining activity at 1 µM (340 wild-type kinases [12]; PKCtheta, 1 µM, read-out: residual activity): 89% | remaining activity at 0.2 µM (340 wild-type kinases [13]; 0.2 µM 2015, read-out: RPS6KA2 residual activity): 84.7% | remaining activity at 1 µM (340 wild-type kinases [13]; 1 µM 2015, read-out: RPS6KA2 residual activity): 91% | remaining activity at 0.2 µM (340 wild-type kinases [13]; RPS6KA2, 0.2 µM, read-out: residual activity): 84.7% | remaining activity at 1 µM (340 wild-type kinases [13]; RPS6KA2, 1 µM, read-out: residual activity): 91%
